Results reported in the supplement of paper PMC10920090.

What was measured:
MDA-MB-231 [1] = assay: drug sensitivity score (DSS), cell viability CellTiter-Glo; higher = more sensitive; extreme values may be limits of the assay; conditions: 72 h
MDA-MB-231 [2] = assay: drug sensitivity score (DSS), cytotoxicity CellTox Green; higher = more cytotoxic; extreme values may be limits of the assay; conditions: 72 h
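For drug sensitivity score (DSS), cytotoxicity CellTox Green in this document: DSS summarises each dose–response curve by combining IC50, EC50, maximal inhibition and efficacy across drug concentrations.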

Row | Structure (SMILES) | drug sensitivity score (MDA-MB-231 [1]; shRNA: shPPFIA1_1) [DSS] | drug sensitivity score (MDA-MB-231 [1]; shRNA: shScramble) [DSS] | drug sensitivity score (MDA-MB-231 [2]; shRNA: shPPFIA1_1) [DSS] | drug sensitivity score (MDA-MB-231 [2]; shRNA: shScramble) [DSS]
1 | CCc1cnn2c(NCc3ccc[n+]([O-])c3)cc(N3CCCC[C@H]3CCO)nc12 [Dinaciclib] | 13.8 | 18.7 | 15.4 | 8.8
2 | CCN(CC)C(=S)SSC(=S)N(CC)CC [Disulfiram] | 6.5 | 14.3 | 6.4 | 7
3 | Cc1ccc(-n2nc(C(C)(C)C)cc2NC(=O)Nc2ccc(OCCN3CCOCC3)c3ccccc23)cc1 [Doramapimod] | 0 | 2.5 | 0 | 0
4 | CN1CCN(c2ccc3nc(-c4c(N)c5c(F)cccc5[nH]c4=O)[nH]c3c2)CC1 [Dovitinib] | 0 | 0 | 0 | 0
5 | COc1cccc2c1C(=O)c1c(O)c3c(c(O)c1C2=O)C[C@@](O)(C(=O)CO)C[C@@H]3O[C@H]1C[C@H](N)[C@H](O)[C@H](C)O1 [Doxorubicin] | 1.4 | 6.8 | 0 | 0
6 | C[C@H](Nc1ncnc2nc[nH]c12)c1cc2cccc(Cl)c2c(=O)n1-c1ccccc1 [Duvelisib] | 3 | 0 | 0 | 3.3
7 | Cc1cc(Nc2cc(N3CCN(C)CC3)nc(/C=C/c3ccccc3)n2)n[nH]1 [ENMD-2076] | 3.8 | 8.8 | 2 | 0.9
8 | Cc1cc(C)c(CNC(=O)c2cc(-c3ccc(CN4CCOCC4)cc3)cc3c2cnn3C2CCCC2)c(=O)[nH]1 [EPZ-5687] | 3.5 | 0 | 0 | 0
9 | COC(=O)N[C@@H](C)CNc1nccc(-c2cn(C(C)C)nc2-c2cc(Cl)cc(NS(C)(=O)=O)c2F)n1 [Encorafenib] | 0 | 1.3 | 0 | 0
10 | Nc1ccccc1NC(=O)c1ccc(CNC(=O)OCc2cccnc2)cc1 [Entinostat] | 0.3 | 4.5 | 3.9 | 0.2
11 | c1cn2cc(-c3ccc4cn[nH]c4c3)nc(Nc3ccc(N4CCOCC4)cc3)c2n1 [Entospletinib] | 0.9 | 0 | 10.3 | 0
12 | CNC(=O)c1ccc(N2C(=S)N(c3ccc(C#N)c(C(F)(F)F)c3)C(=O)C2(C)C)cc1F [Enzalutamide] | 0 | 0 | 0 | 0
13 | Cn1cc(C2=C(c3cn(C4CCN(Cc5ccccn5)CC4)c4ccccc34)C(=O)NC2=O)c2ccccc21 [Enzastaurin] | 5.6 | 2.8 | 0 | 0
14 | NS(=O)(=O)NCCNc1nonc1/C(=N/O)Nc1ccc(F)c(Br)c1 [Epacadostat] | 0 | 0 | 0 | 0
15 | C[C@]12CC[C@@H]3c4ccc(OC(=O)N(CCCl)CCCl)cc4CC[C@H]3[C@@H]1CC[C@@H]2O [Estramustine] | 0 | 0 | 0 | 0
16 | COc1cc([C@@H]2c3cc4c(cc3[C@@H](O[C@@H]3O[C@@H]5CO[C@@H](C)O[C@H]5[C@H](O)[C@H]3O)[C@H]3COC(=O)[C@H]23)OCO4)cc(OC)c1O [Etoposide] | 0 | 2 | 1.6 | 1.8
17 | C=C1C[C@@H]2[C@H](CC[C@]3(C)C(=O)CC[C@@H]23)[C@@]2(C)C=CC(=O)C=C12 [Exemestane] | 0 | 1.4 | 0 | 0
18 | Cc1nc(C(=O)NCC(=O)O)c(O)c2ccc(Oc3ccccc3)cc12 [FG-4592] | 2.2 | 2.9 | 0 | 0
19 | CCn1c(=O)c(-c2ccc(Cl)cc2Cl)cc2cnc(Nc3ccc(N4CCNCC4)c(F)c3)nc21 [FRAX486] | 0 | 2.8 | 0 | 0
20 | O=S(=O)(c1cccc2cnccc12)N1CCCNCC1 [Fasudil] | 2.6 | 1.4 | 1.6 | 2.1
21 | Cc1cnc(Nc2ccc(OCCN3CCCC3)cc2)nc1Nc1cccc(S(=O)(=O)NC(C)(C)C)c1 [Fedratinib] | 1.9 | 9.2 | 2.2 | 5.7
22 | CON(C)C(=O)N1N=C(c2cc(F)ccc2F)S[C@@]1(CCCN)c1ccccc1 [Filanesib] | 0 | 8.4 | 14.1 | 9.3

Row | Structure (SMILES) | drug sensitivity score (MDA-MB-231 [1]; shRNA: shPPFIA1_1) [DSS] | drug sensitivity score (MDA-MB-231 [1]; shRNA: shScramble) [DSS] | drug sensitivity score (MDA-MB-231 [2]; shRNA: shPPFIA1_1) [DSS] | drug sensitivity score (MDA-MB-231 [2]; shRNA: shScramble) [DSS]
23 | O=C(Nc1nc2cccc(-c3ccc(CN4CCS(=O)(=O)CC4)cc3)n2n1)C1CC1 [Filgotinib] | 0 | 0.2 | 0 | 0
24 | CC(C)(C)NC(=O)[C@H]1CC[C@H]2[C@@H]3CC[C@H]4NC(=O)C=C[C@]4(C)[C@H]3CC[C@]12C [Finasteride] | 0 | 0 | 0 | 0
25 | CCCCCCCCc1ccc(CCC(N)(CO)CO)cc1 [Fingolimod] | 7.5 | 8 | 6.7 | 6.8
26 | O=c1[nH]c(=O)n([C@H]2C[C@H](O)[C@@H](CO)O2)cc1F [Floxuridine] | 14.6 | 19.7 | 0 | 0.2
27 | Nc1nc(F)nc2c1ncn2[C@@H]1O[C@H](CO)[C@@H](O)[C@@H]1O [Fludarabine] | 0.4 | 2.5 | 0 | 0
28 | O=c1[nH]cc(F)c(=O)[nH]1 [Fluorouracil] | 0 | 0.6 | 0 | 0
29 | CC(C)C(=O)Nc1ccc([N+](=O)[O-])c(C(F)(F)F)c1 [Flutamide] | 0 | 0.3 | 0 | 0
30 | COc1cc2c(Oc3ccc(NC(=O)C4(C(=O)Nc5ccc(F)cc5)CC4)cc3F)ccnc2cc1OCCCN1CCOCC1 [Foretinib] | 0 | 2.2 | 0 | 0
31 | COc1cc(Nc2ncc(F)c(Nc3ccc4c(n3)N(COP(=O)(O)O)C(=O)C(C)(C)O4)n2)cc(OC)c1OC [Fostamatinib] | 1 | 5.3 | 1.6 | 0.8
32 | C[C@]12CC[C@@H]3c4ccc(O)cc4C[C@@H](CCCCCCCCC[S+]([O-])CCCC(F)(F)C(F)(F)F)[C@H]3[C@@H]1CC[C@@H]2O (stereo partly specified) [Fulvestrant] | 0 | 0 | 0 | 0
33 | Cn1nccc1Nc1nccc(-c2ccn([C@H](CO)c3ccc(Cl)c(F)c3)c(=O)c2)n1 [GDC-0994] | 0 | 3.5 | 0 | 3
34 | CNc1nc(Nc2cn(C(C)(C)C#N)nc2C)ncc1C(F)(F)F [GNE-0877] | 0 | 0 | 0 | 0
35 | CCNc1nc(Nc2cc(F)c(C(=O)N3CCOCC3)cc2OC)ncc1C(F)(F)F [GNE-7915] | 0 | 0 | 0 | 0
36 | CCCc1cc(C)[nH]c(=O)c1CNC(=O)c1cc(-c2ccnc(N3CCN(C)CC3)c2)cc2c1cnn2C(C)C [GSK343] | 6 | 3.1 | 3.8 | 1.9
37 | CCCOc1ccn2c(C(C)=O)cc(-c3ccccc3S(C)(=O)=O)c2c1 [GSK2801] | 0 | 0 | 0 | 0
38 | CCOC(=O)CCNc1cc(N2CCc3ccccc3CC2)nc(-c2ccccn2)n1 [GSK-J4] | 10.2 | 11.3 | 7.4 | 8.3
39 | C[C@@H]1C=C2C(=O)O[C@@H]3CC[C@H](C1)[C@]23O [Galiellalactone] | 0.2 | 2.1 | 2.9 | 1.8
40 | Cc1cccc(-c2nn3c(c2-c2ccnc4ccc(C(N)=O)cc24)CCC3)n1 [Galunisertib] | 0 | 0 | 0 | 0
41 | Cc1cc(Nc2cc(CN3CCOCC3)c3nc(C)c(Cc4ccc(Cl)cc4F)n3n2)n[nH]1 [Gandotinib] | 1.6 | 4.4 | 2.1 | 1.7
42 | CC(C)c1cc(-c2n[nH]c(=O)n2-c2ccc3c(ccn3C)c2)c(O)cc1O [Ganetespib] | 9.9 | 11.5 | 1.2 | 3
43 | CN(C)C1CCN(C(=O)c2ccc(NC(=O)Nc3ccc(-c4nc(N5CCOCC5)nc(N5CCOCC5)n4)cc3)cc2)CC1 [Gedatolisib] | 7.2 | 20.8 | 0 | 0
44 | Nc1ccn([C@@H]2O[C@H](CO)[C@@H](O)C2(F)F)c(=O)n1 [Gemcitabine] | 1.3 | 8.6 | 0.3 | 0

Row | Structure (SMILES) | drug sensitivity score (MDA-MB-231 [1]; shRNA: shPPFIA1_1) [DSS] | drug sensitivity score (MDA-MB-231 [1]; shRNA: shScramble) [DSS] | drug sensitivity score (MDA-MB-231 [2]; shRNA: shPPFIA1_1) [DSS] | drug sensitivity score (MDA-MB-231 [2]; shRNA: shScramble) [DSS]
45 | CCN(CC)Cc1ccc2cc(COC(=O)Nc3ccc(C(=O)NO)cc3)ccc2c1 [Givinostat] | 0.9 | 4 | 2.4 | 3.4
46 | CN1CC[C@@H](NC(=O)Nc2ccc(C#N)cc2)C[C@@H]1c1nc2ccccc2[nH]1 [Glasdegib] | 0 | 0 | 0 | 0
47 | CN1CCN(C2CCN(C(=O)Nc3cc(Oc4ccc(NC(=O)C5(C(=O)Nc6ccc(F)cc6)CC5)c(F)c4)ccn3)CC2)CC1 [Golvatinib] | 0.2 | 2 | 0 | 0
48 | CC(C)C[C@H](NC(=O)[C@@H](COC(C)(C)C)NC(=O)[C@H](Cc1ccc(O)cc1)NC(=O)[C@H](CO)NC(=O)[C@H](Cc1c[nH]c2ccccc12)NC(=O)[C@H](Cc1cnc[nH]1)NC(=O)[C@@H]1CCC(=O)N1)C(=O)N[C@@H](CCCNC(=N)N)C(=O)N1CCC[C@H]1C(=O)NNC(N)=O [Goserelin] | 0 | 0 | 0 | 0
49 | O=S(=O)(c1cccc2c(O)nccc12)N1CCCNCC1 [Hydroxyfasudil] | 0 | 0 | 0 | 0
50 | NC(=O)NO [Hydroxyurea] | 0 | 0 | 0 | 0
51 | COc1cc2c(cc1-c1c(C)noc1C)ncc1[nH]c(=O)n([C@H](C)c3ccccn3)c12 [I-BET151] | 0 | 6.1 | 0 | 0
52 | O=C(O)c1ccc(O)c2ncccc12 [IOX-1] | 0 | 0 | 0 | 0
53 | O=C(O)CNC(=O)c1c(O)c2ccccc2n(Cc2ccccc2)c1=O [IOX-2] | 5 | 4 | 0 | 0
54 | C=CC(=O)N1CCC[C@@H](n2nc(-c3ccc(Oc4ccccc4)cc3)c3c(N)ncnc32)C1 [Ibrutinib] | 0 | 0 | 0 | 0
55 | C#Cc1cccc(Nc2ncnc3cc4c(cc23)OCCOCCOCCO4)c1 [Icotinib] | 6.2 | 3 | 0 | 0
56 | CC(=O)[C@]1(O)Cc2c(O)c3c(c(O)c2[C@@H](O[C@H]2C[C@H](N)[C@H](O)[C@H](C)O2)C1)C(=O)c1ccccc1C3=O [Idarubicin] | 6.4 | 10.7 | 6.6 | 7.5
57 | COc1cc(C(=O)O)ccc1NC(=O)[C@@H]1N[C@@H](CC(C)(C)C)[C@](C#N)(c2ccc(Cl)cc2F)[C@H]1c1cccc(Cl)c1F [Idasanutlin] | 0 | 0 | 2.6 | 0.6
58 | CC[C@H](Nc1ncnc2[nH]cnc12)c1nc2cccc(F)c2c(=O)n1-c1ccccc1 [Idelalisib] | 0 | 0.9 | 0 | 0
59 | O=P1(NCCCl)OCCCN1CCCl (stereo unspecified) [Ifosfamide] | 0 | 0 | 0 | 0
60 | Cc1ccc(NC(=O)c2ccc(CN3CCN(C)CC3)cc2)cc1Nc1nccc(-c2cccnc2)n1 [Imatinib] | 1.5 | 0 | 1.4 | 0
61 | CC(C)Cn1cnc2c(N)nc3ccccc3c21 [Imiquimod] | 0 | 2.7 | 0.9 | 0
62 | O=C(Nc1ccncc1)C(=O)c1cn(Cc2ccc(Cl)cc2)c2ccccc12 [Indibulin] | 0 | 3.1 | 2.3 | 0
63 | NC(=O)c1ccc(I)c([N+](=O)[O-])c1 [Iniparib] | 0 | 0 | 0 | 0
64 | CC(C)NC[C@@H](C(=O)N1CCN(c2ncnc3c2[C@H](C)C[C@H]3O)CC1)c1ccc(Cl)cc1 [Ipatasertib] | 3.3 | 3.7 | 0 | 0
